Data reported in ChEMBL document CHEMBL4342455, “Benwamycins A-G, Trialkyl-Substituted Benzene Derivatives from a Soil-Derived Streptomyces” (J Nat Prod, 2020).
Active and inactive are the calls of the source. No cut-off for these calls is given here.

Assays:
[1] = tested on: T-cell; assay: Immunosuppressive activity in anti-CD3/anti-CD28-stimulated human T cells assessed as reduction in cell viability after 96 hrs by CFSE dye based flow cytometric analysis; type: functional
[2] = Cytotoxicity against human naive T cells assessed as reduction in cell viability after 96 hrs by flow cytometric analysis; type: cell-based
[3] = tested on: 3T3-L1; assay: Induction of glucose uptake in mature mouse 3T3L1 adipocytes assessed as [3H]2-deoxy-D-glucose uptake at 25 uM preincubated for 24 hrs followed by [3H]2-deoxy-D-glucose additon and measured after 10 mins by scintillation counting method relative to control; type: functional
[4] = tested on: 3T3-L1; assay: Induction of glucose uptake in mature mouse 3T3L1 adipocytes assessed as [3H]2-deoxy-D-glucose uptake at 10 uM preincubated for 24 hrs followed by [3H]2-deoxy-D-glucose additon and measured after 10 mins by scintillation counting method relative to control; type: functional

Row | SMILES | IC50 [1] [µM] | CC50 at 96 h [2] [µM] | Activity [3] | Activity [1] | Activity [4] [%]
1 | Cc1ccc([C@H](C)[C@@H](O)[C@H](C)[C@H](C)O)c(/C=C/CO)c1 | 14.3 | > 80 | inactive |  | 
2 | CCC1=CC(=O)[C@@H](C)[C@@H]([C@@H](C)c2ccc(CO)cc2/C=C/CO)O1 |  |  | inactive | inactive | 
3 | COc1ccc2cc3[n+](cc2c1OC)CCc1cc2c(cc1-3)OCO2 [BERBERINE] |  |  |  |  | 25.5
4 | CC(=O)[C@@H](C)[C@H](O)[C@@H](C)c1ccc(C)cc1/C=C/CO |  |  | inactive | inactive | 
5 | CCC(=O)O[C@@H]([C@H](C)C(C)=O)[C@@H](C)c1ccc(CO)cc1/C=C/CO |  |  | inactive | inactive | 
6 | CC(=O)[C@@H](C)[C@H](O)[C@@H](C)c1ccc(C)cc1/C=C/C(=O)O |  |  | inactive | inactive | 
7 | CCC(=O)O[C@@H]([C@H](C)C(C)=O)[C@@H](C)c1ccc(C)cc1/C=C/CO |  |  | inactive | inactive | 
8 | C[C@@H]([C@H](O)[C@@H](C)c1ccc(CO)cc1/C=C/CO)[C@H](C)O |  |  | inactive | inactive | 
9 | CCC1=CC(=O)[C@@H](C)[C@@H]([C@@H](C)c2ccc(C)cc2/C=C/CO)O1 | 12.5 | > 80 | 21.1% |  | 
10 | CC(=O)OCc1ccc([C@H](C)[C@@H](O)[C@H](C)C(C)=O)c(/C=C/CO)c1 |  |  | 28.4% | inactive | 
11 | CC(=O)[C@@H](C)[C@H](O)[C@@H](C)c1ccc(CO)cc1/C=C/CO |  |  | inactive | inactive | 
